Patent US20090238808A1, “Process for the identification of novel enzyme interacting compounds” (priority 2005, published 2009)

How the values were obtained:
Test in all cases: In-lysate competition binding with kinobeads, Jurkat lysate, iTRAQ MS, relative intensity of identified proteins (Table 22)
Details in all cases: DMSO control = 1.0
[1] = biological target: T1, proteins captured on kinobeads from Jurkat cell lysate (Homo sapiens, UniProt P28482)
T1 construct: endogenous in cells; host or cells: Jurkat clone E6-1 lysate
Method: (§1) This example illustrates competition binding in cell lysates (see particularly the third aspect of the invention). A test compound, Bisindolylmaleimide VIII (Bis VIII, a well known kinase inhibitor; Davies et al., 2000. Specificity and mechanism of action of some commonly used protein kinase inhibitors. Biochemical Journal 351 (Pt 1): 95-105) was added to a cell lysate thereby allowing the test compound to bind to the target proteins in the lysate. Then the lysate was contacted with the kinobeads affinity matrix to capture remaining free target proteins. The proteins bound to the kinobeads matrix were then eluted with detergent-containing buffer, separated on a SDS-polyacryamide gel and analyzed by immunodetection (Western blots) or mass spectrometry detection.
(§2) For the quantitative detection of proteins by mass spectrometry proteins were eluted from the affinity matrix and subsequently separated by SDS-Polyacrylamide gel elecrophoresis. Suitable gel areas were cut out and subjected to in-gel proteolytic digestion with trypsin.
(§3) Four tryptic digest samples (corresponding to three different Bis VIII concentrations in the lysate and one DMSO control) were labeled with ITRAQ reagents and the combined samples were analyzed in a single LC-MS/MS mass spectrometry analysis followed by peak quantification in the MS/MS spectrum (Ross et al., 2004. Multiplexed protein quantitation in Saccharomyces cerevisiae using amine-reactive isobaric tagging reagents. Mol. Cell. Proteomics 3(12): 1154-1169). […] Binding curves for individual kinases are shown (FIG. 5). The relative intensity 50 (RI50) values representing the affinity of kinase-compound pairs are similar to IC50 values reported by kinase enzyme assays (Davies et al., 2000. Specificity and mechanism of action of some commonly used protein kinase inhibitors. Biochemical Journal 351 (Pt 1): 95-105).
(§4) Aliqots of Jurkat lysate (10 mg protein) were incubated with different Bis VIII concentrations for one hour at 4° C. (0.025 μM, 0.074 μM, 0.22 μM, 0.67 μM, 2.0 μM and 6.0 μM final concentration of Bis VIII). To this end Bis VIII solutions were prepared in 100% DMSO as solvent that corresponded to 200 fold desired final Bis VIII concentration (Bis VIII from Alexis Biochemicals cat. number ALX 270-056). Five μl of these solutions were added to 1 ml of lysate resulting in the indicated final concentrations. For a control experiment 5 μl of DMSO without Bis VIII were used.
(§5) To each preincubated lysate sample 40 μl of kinobeads (see example 1) were added and incubated for one hour at 4° C. During the incubation the tubes were rotated on an end-over-end shaker (Roto Shake Genie, Scientific Industries Inc.). Beads were collected by centrifugation, transfered to Mobicol-columns (MoBiTech 10055) and washed with 10 ml 1×DP buffer containing 0.4% NP40 detergent, followed by a wash with 5 ml 1×DP buffer with 0.2% NP40. To elute the bound proteins, 100 μl 2×SDS sample buffer was added, the column was heated for 30 minutes at 50° C. and the eluate was transferred to a microfuge tube by centrifugation. Proteins were then separated by SDS-Polyacrylamide electrophoresis (SDS-PAGE). The composition and preparation of buffers is described in example 2.
(§6) The peptide extracts of samples treated with different concentrations of the test compound (0.074 μM, 0.22 μM and 0.67 μM Bis VIII) and the solvent control (0.5% DMSO) were treated with different isomers of the isobaric tagging reagent (iTRAQ Reagents Multiplex Kit, part number 4352135, Applied Biosystems, Foster City, Calif., USA). The iTRAQ reagents are a set of multiplexed, amine-specific, stable isotope reagents that can label all peptides in up to four different biological samples enabling simultaneous identification and quantitation of peptides. The iTRAQ reagents were used according to instructions provided by the manufacturer. […]

[2] = biological target: T2, proteins captured on kinobeads from Jurkat cell lysate (Homo sapiens, UniProt Q13555)
T2 construct: endogenous in cells; host or cells: Jurkat clone E6-1 lysate
Method: as §1, §2, §3, §4, §5, §6

[3] = biological target: T3, proteins captured on kinobeads from Jurkat cell lysate (Homo sapiens, UniProt P06239)
T3 construct: endogenous in cells; host or cells: Jurkat clone E6-1 lysate
Method: as §1, §2, §3, §4, §5, §6

[4] = biological target: T4, proteins captured on kinobeads from Jurkat cell lysate (Homo sapiens, UniProt P42684)
T4 construct: endogenous in cells; host or cells: Jurkat clone E6-1 lysate
Method: as §1, §2, §3, §4, §5, §6

[5] = biological target: T5, proteins captured on kinobeads from Jurkat cell lysate (Homo sapiens, UniProt P16083)
T5 construct: endogenous in cells; host or cells: Jurkat clone E6-1 lysate
Method: as §1, §2, §3, §4, §5, §6

[6] = biological target: T6, proteins captured on kinobeads from Jurkat cell lysate (Homo sapiens, UniProt P06241)
T6 construct: endogenous in cells; host or cells: Jurkat clone E6-1 lysate
Method: as §1, §2, §3, §4, §5, §6

[7] = biological target: T7, proteins captured on kinobeads from Jurkat cell lysate (Homo sapiens, UniProt P45984)
T7 construct: endogenous in cells; host or cells: Jurkat clone E6-1 lysate
Method: as §1, §2, §3, §4, §5, §6

[8] = biological target: T8, proteins captured on kinobeads from Jurkat cell lysate (Homo sapiens, UniProt P30291)
T8 construct: endogenous in cells; host or cells: Jurkat clone E6-1 lysate
Method: as §1, §2, §3, §4, §5, §6

[9] = biological target: T9, proteins captured on kinobeads from Jurkat cell lysate (Homo sapiens, UniProt P41240)
T9 construct: endogenous in cells; host or cells: Jurkat clone E6-1 lysate
Method: as §1, §2, §3, §4, §5, §6

[10] = biological target: T10, proteins captured on kinobeads from Jurkat cell lysate (Homo sapiens, UniProt Q16539)
T10 construct: endogenous in cells; host or cells: Jurkat clone E6-1 lysate
Method: as §1, §2, §3, §4, §5, §6

[11] = biological target: T11, proteins captured on kinobeads from Jurkat cell lysate (Homo sapiens, UniProt Q14289)
T11 construct: endogenous in cells; host or cells: Jurkat clone E6-1 lysate
Method: as §1, §2, §3, §4, §5, §6

[12] = biological target: T12, proteins captured on kinobeads from Jurkat cell lysate (Homo sapiens, UniProt P54619)
T12 construct: endogenous in cells; host or cells: Jurkat clone E6-1 lysate
Method: as §1, §2, §3, §4, §5, §6

[13] = biological target: T13, proteins captured on kinobeads from Jurkat cell lysate (Homo sapiens, UniProt O14976)
T13 construct: endogenous in cells; host or cells: Jurkat clone E6-1 lysate
Method: as §1, §2, §3, §4, §5, §6

[14] = biological target: T14, proteins captured on kinobeads from Jurkat cell lysate (Homo sapiens, UniProt P45983)
T14 construct: endogenous in cells; host or cells: Jurkat clone E6-1 lysate
Method: as §1, §2, §3, §4, §5, §6

[15] = biological target: T15, proteins captured on kinobeads from Jurkat cell lysate (Homo sapiens, UniProt Q6PHR2)
T15 construct: endogenous in cells; host or cells: Jurkat clone E6-1 lysate
Method: as §1, §2, §3, §4, §5, §6

T10 sequence (Q16539 whole entry): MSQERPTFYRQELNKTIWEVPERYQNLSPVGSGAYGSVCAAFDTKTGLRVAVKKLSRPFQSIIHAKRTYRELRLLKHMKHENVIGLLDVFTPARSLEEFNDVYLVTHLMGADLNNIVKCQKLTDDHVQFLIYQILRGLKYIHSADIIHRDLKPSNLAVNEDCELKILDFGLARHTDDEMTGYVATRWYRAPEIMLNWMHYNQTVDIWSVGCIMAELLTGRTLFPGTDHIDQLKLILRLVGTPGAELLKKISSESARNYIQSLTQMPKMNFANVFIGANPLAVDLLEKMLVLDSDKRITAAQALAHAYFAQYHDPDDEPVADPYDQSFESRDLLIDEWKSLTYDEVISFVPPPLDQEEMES
T7 sequence (P45984 whole entry): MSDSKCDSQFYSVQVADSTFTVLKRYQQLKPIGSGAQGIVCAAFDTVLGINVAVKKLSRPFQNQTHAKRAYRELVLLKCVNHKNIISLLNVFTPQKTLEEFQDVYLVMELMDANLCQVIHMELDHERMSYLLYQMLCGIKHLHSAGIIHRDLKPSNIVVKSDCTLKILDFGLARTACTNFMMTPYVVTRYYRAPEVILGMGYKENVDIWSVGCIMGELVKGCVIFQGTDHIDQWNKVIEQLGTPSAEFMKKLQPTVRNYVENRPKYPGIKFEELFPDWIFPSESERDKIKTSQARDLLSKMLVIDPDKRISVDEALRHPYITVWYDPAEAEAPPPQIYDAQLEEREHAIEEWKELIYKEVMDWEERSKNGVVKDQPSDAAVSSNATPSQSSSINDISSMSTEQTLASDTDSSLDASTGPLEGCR
T12 sequence (P54619 whole entry): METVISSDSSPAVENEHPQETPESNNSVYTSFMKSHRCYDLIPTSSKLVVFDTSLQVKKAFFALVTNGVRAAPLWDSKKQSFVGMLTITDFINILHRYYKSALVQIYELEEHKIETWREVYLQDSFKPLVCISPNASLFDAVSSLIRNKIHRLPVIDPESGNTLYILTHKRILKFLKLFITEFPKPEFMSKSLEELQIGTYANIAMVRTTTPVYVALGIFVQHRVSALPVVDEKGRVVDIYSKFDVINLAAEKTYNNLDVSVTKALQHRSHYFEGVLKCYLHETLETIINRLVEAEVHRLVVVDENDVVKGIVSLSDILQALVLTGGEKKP
T8 sequence (P30291 whole entry): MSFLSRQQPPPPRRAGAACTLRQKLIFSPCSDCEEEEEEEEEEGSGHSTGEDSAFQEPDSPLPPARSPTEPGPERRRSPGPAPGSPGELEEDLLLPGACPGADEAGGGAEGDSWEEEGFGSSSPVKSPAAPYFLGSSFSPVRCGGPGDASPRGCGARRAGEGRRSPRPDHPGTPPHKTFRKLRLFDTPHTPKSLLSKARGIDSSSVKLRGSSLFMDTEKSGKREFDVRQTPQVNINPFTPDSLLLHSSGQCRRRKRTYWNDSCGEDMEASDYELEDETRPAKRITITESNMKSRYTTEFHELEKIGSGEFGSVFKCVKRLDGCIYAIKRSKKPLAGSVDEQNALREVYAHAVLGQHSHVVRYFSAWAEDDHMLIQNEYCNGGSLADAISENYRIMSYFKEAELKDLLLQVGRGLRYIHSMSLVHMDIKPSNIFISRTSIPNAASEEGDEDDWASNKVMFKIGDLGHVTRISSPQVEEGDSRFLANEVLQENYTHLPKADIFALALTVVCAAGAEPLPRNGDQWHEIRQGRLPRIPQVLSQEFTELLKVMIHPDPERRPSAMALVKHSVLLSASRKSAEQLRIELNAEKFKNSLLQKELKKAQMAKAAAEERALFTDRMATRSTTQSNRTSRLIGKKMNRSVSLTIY
T5 sequence (P16083 whole entry): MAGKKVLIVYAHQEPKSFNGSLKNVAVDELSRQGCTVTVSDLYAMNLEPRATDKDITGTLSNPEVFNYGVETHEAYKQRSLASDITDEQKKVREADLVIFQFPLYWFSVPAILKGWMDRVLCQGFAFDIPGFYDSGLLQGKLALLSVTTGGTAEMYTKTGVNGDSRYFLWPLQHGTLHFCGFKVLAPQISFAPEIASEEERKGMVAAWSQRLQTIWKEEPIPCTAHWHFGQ
T4 sequence (P42684 whole entry): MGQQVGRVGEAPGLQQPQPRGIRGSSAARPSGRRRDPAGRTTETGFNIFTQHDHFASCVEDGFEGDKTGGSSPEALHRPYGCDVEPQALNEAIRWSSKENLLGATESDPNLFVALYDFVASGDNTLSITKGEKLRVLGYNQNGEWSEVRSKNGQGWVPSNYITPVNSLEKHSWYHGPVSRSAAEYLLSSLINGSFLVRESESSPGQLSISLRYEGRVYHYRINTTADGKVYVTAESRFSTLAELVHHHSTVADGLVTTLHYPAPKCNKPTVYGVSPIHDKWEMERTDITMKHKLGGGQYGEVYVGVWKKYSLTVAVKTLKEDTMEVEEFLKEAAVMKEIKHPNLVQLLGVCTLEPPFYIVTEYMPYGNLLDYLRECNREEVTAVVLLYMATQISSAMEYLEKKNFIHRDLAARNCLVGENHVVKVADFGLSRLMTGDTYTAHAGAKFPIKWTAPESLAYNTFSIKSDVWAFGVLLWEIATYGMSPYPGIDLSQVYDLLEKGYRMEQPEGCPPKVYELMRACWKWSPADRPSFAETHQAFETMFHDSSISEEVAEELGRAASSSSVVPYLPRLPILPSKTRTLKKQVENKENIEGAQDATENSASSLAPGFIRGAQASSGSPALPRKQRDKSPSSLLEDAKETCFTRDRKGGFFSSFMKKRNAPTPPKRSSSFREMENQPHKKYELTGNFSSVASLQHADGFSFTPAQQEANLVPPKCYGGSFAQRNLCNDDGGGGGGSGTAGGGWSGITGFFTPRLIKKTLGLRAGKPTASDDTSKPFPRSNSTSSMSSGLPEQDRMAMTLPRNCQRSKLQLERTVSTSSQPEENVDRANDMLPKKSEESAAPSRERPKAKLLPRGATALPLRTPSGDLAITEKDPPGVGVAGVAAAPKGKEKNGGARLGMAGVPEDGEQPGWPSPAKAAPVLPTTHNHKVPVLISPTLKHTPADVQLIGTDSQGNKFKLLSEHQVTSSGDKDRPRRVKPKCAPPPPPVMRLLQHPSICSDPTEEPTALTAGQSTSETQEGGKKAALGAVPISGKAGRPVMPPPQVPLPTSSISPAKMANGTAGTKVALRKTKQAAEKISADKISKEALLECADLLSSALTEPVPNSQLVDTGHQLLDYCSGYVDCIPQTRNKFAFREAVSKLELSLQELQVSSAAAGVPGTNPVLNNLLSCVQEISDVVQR
T11 sequence (Q14289 whole entry): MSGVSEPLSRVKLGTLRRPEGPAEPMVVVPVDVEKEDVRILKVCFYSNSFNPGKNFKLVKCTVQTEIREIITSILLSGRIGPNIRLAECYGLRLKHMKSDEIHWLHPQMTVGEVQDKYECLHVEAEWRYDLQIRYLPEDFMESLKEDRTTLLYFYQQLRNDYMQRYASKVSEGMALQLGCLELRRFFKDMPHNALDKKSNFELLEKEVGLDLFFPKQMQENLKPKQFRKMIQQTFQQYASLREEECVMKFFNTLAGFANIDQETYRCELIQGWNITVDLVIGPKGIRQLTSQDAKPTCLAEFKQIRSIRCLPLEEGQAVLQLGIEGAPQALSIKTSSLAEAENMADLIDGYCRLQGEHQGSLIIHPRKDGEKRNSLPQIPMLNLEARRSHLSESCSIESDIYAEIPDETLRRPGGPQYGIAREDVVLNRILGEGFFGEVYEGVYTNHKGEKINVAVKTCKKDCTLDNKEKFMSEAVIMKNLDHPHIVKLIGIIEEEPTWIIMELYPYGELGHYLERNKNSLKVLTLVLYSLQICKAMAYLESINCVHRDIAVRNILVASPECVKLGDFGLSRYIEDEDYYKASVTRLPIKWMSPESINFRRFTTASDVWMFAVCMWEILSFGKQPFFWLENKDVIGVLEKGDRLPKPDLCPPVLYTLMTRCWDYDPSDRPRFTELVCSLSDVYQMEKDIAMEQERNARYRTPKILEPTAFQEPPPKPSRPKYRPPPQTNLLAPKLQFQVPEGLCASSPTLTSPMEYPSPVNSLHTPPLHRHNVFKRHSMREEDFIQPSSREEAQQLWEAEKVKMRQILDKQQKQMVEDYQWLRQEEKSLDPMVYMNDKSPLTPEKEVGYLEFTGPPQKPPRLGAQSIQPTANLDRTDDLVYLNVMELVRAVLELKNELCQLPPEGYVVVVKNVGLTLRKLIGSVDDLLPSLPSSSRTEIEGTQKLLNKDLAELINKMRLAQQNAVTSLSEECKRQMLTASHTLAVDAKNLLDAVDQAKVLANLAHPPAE
T6 sequence (P06241 whole entry): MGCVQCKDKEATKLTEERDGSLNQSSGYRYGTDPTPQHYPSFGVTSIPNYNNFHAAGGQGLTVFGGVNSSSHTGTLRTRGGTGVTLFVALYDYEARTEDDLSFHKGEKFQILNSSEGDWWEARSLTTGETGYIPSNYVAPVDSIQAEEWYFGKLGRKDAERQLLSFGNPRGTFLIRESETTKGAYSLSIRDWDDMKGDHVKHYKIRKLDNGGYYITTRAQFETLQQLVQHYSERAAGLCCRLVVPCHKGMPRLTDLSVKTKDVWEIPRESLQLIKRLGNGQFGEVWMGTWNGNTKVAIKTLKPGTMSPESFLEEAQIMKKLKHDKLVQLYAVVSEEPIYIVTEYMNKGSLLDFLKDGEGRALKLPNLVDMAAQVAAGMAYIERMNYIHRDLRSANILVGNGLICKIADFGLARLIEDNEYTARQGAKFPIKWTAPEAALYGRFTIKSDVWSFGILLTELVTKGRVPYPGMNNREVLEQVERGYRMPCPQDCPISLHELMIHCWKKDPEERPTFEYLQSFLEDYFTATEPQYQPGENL

Cn1cc(C2=C(c3cn(CCCN)c4ccccc34)C(=O)NC2=O)c2ccccc21 [Bis VIII, Bisindolylmaleimide VIII]
Relative Intensity, Erk2 (MAPK1) ([1]; 0.074 uM in lysate): 0.89
Relative Intensity, Erk2 (MAPK1) ([1]; 0.67 uM in lysate): 0.98
Relative Intensity, CaMK2g ([2]; 0.074 uM in lysate): 0.83
Relative Intensity, CaMK2g ([2]; 0.67 uM in lysate): 0.88
Relative Intensity, LCK ([3]; 0.074 uM in lysate): 0.87
Relative Intensity, LCK ([3]; 0.67 uM in lysate): 0.94
Relative Intensity, ARG (ABL2) ([4]; 0.074 uM in lysate): 0.96
Relative Intensity, ARG (ABL2) ([4]; 0.67 uM in lysate): 0.91
Relative Intensity, NQO2 ([5]; 0.074 uM in lysate): 0.87
Relative Intensity, NQO2 ([5]; 0.67 uM in lysate): 0.78
Relative Intensity, FYN ([6]; 0.074 uM in lysate): 0.91
Relative Intensity, FYN ([6]; 0.67 uM in lysate): 0.93
Relative Intensity, JNK2 (MAPK9) ([7]; 0.074 uM in lysate): 0.97
Relative Intensity, JNK2 (MAPK9) ([7]; 0.67 uM in lysate): 1.04
Relative Intensity, Wee1 ([8]; 0.074 uM in lysate): 1.21
Relative Intensity, Wee1 ([8]; 0.67 uM in lysate): 1.14
Relative Intensity, CSK ([9]; 0.074 uM in lysate): 0.84
Relative Intensity, CSK ([9]; 0.67 uM in lysate): 0.89
Relative Intensity, p38a (MAPK14) ([10]; 0.074 uM in lysate): 0.82
Relative Intensity, p38a (MAPK14) ([10]; 0.67 uM in lysate): 0.93
Relative Intensity, PYK2 (PTK2B) ([11]; 0.074 uM in lysate): 0.82
Relative Intensity, PYK2 (PTK2B) ([11]; 0.67 uM in lysate): 0.74
Relative Intensity, PRKAG1 ([12]; 0.074 uM in lysate): 0.78
Relative Intensity, PRKAG1 ([12]; 0.67 uM in lysate): 0.68
Relative Intensity, GAK ([13]; 0.074 uM in lysate): 0.92
Relative Intensity, GAK ([13]; 0.67 uM in lysate): 0.97
Relative Intensity, JNK1 (MAPK8) ([14]; 0.074 uM in lysate): 0.91
Relative Intensity, JNK1 (MAPK8) ([14]; 0.67 uM in lysate): 0.83
Relative Intensity, ULK3 ([15]; 0.074 uM in lysate): 0.95
Relative Intensity, ULK3 ([15]; 0.67 uM in lysate): 1.15
